# Results reported in patent publication EP0771564A1, “INTERLEUKIN-5 PRODUCTION INHIBITOR” (TAISHO PHARMACEUTICAL CO. LTD, priority 1994, dated 1996).
# What was measured:
# [1] = system: IL-5 production; test: Inhibition of IL-5 production by antigen-stimulated murine Th2 clone D10.G4.1 cells (IL-5 ELISA of culture supernatant); type: cell-based, mice; details: inhibitory effect on IL-5 production, D10.G4.1 cells with MMC-treated antigen presenting cells and conalbumin, 48 hours incubation
# Experimental: Murine Th2 clone (D10.G4.1 cells) was purchased from ATCC. Antigen presenting cells were prepared by suspending 1 x 10^7 spleen cells of a 8-week-old female C3H/HeN mice in 5 ml of an RPMI-1640 medium and incubated together with 50 µg/ml of mitomycin C (MMC) at 37°C for 30 minutes and then washed with three 50 ml portions of RPMI-1640. To RPMI-1640 containing 10% bovine serium were added 0.5 U of IL-2 (produced by Genzyme) and 5 x 10^-5 M of 2-mercaptoethanol to prepare a medium for tissue culture.
# In each well of a 96-well microtiter plate (produced by Corning Glass Works) were put each 50 µl/well of 4 x 10^5 cells/ml of D10.G4.1 cells, 2 x 10^6 cells/ml of MMC-treated antigen presenting cells, 400 µg/ml of conalbumin (produced by Sigma) as an antigen and the solution of the test compound in the tissue culture medium (to make 200 µl/well), and incubated in an incubator under 5% CO2 at 37°C for 48 hours. After completion of the incubation, the supernatant liquor of the culture was collected, and the cells were seprated by centrifugation. The IL-5 in the supernatant liquor was determined with an IL-5 ELISA kit produced by ENDOGEN.
# [2] = system: ICR male mice; test: Oral administration safety test in mice (mortality); type: in vivo; details: orally administered to ICR male mice, dose level of 100 mg/kg
# Excerpt: The compounds of Examples 1 and 2 were orally administered to ICR male mice grouped in fives.
IC50 ([1]; Mus musculus) [nM],Compound,IC50 [1] [nM],death [2]
–,"3-O-(4-Biphenyl)acetyl-5-O-desosaminyl-6-O-methylerythronolide A 11,12-Cyclic Carbonate [Compound of Example 1]",< 400,–
930,"CC[C@H]1OC(=O)[C@H](C)[C@@H](O[C@H]2C[C@@](C)(OC)[C@@H](O)[C@H](C)O2)[C@H](C)[C@@H](O[C@@H]2O[C@H](C)C[C@H](N(C)C)[C@H]2O)[C@](C)(O)C[C@@H](C)/C(=N\OCOCCOC)[C@H](C)[C@@H](O)[C@]1(C)O [Roxithromycin, reference compound]",–,–
4500,"CC[C@H]1OC(=O)[C@H](C)[C@@H](O[C@H]2C[C@@](C)(OC)[C@@H](O)[C@H](C)O2)[C@H](C)[C@@H](O[C@@H]2O[C@H](C)C[C@H](N(C)C)[C@H]2O)[C@](C)(O)C[C@@H](C)C(=O)[C@H](C)[C@@H](O)[C@]1(C)O [Erythromycin, reference compound]",–,–
–,"CCC1OC(=O)C(C)C(Oc2c(F)c(F)c(F)c(F)c2[N+](=O)[O-])C(C)C(OC2OC(C)CC(N(C)C)C2O)C(C)(OC)CC(C)C(=O)C(C)C(O)C1(C)O (centres unmarked) [Compound of Example 2, 3-O-(2-Nitro-3,4,5,6-tetrafluoro)-phenyl-5-O-desosaminyl-6-O-methylerythronolide A]",< 100,No death was observed
